One experiment deals with FGFR2 (Homo sapiens, UniProt P21802). Put plainly: In vitro kinase inhibition studies (Table 13), FGFR2. The experiment is classed as biochemical.
In a further experiment the target is EGFR L850R (Homo sapiens, UniProt P00533). Put plainly: In vitro kinase inhibition studies (Table 13), EGFR L850R. The experiment is classed as biochemical.
In the next experiment the target is EGFR L850R, T790M (Homo sapiens, UniProt P00533, T790M, form not given). Put plainly: In vitro kinase inhibition studies (Table 13), EGFR L850R, T790M. The experiment is classed as biochemical.
Sequence of EGFR L850R, T790M (P00533 whole entry T790M/L858R, form open): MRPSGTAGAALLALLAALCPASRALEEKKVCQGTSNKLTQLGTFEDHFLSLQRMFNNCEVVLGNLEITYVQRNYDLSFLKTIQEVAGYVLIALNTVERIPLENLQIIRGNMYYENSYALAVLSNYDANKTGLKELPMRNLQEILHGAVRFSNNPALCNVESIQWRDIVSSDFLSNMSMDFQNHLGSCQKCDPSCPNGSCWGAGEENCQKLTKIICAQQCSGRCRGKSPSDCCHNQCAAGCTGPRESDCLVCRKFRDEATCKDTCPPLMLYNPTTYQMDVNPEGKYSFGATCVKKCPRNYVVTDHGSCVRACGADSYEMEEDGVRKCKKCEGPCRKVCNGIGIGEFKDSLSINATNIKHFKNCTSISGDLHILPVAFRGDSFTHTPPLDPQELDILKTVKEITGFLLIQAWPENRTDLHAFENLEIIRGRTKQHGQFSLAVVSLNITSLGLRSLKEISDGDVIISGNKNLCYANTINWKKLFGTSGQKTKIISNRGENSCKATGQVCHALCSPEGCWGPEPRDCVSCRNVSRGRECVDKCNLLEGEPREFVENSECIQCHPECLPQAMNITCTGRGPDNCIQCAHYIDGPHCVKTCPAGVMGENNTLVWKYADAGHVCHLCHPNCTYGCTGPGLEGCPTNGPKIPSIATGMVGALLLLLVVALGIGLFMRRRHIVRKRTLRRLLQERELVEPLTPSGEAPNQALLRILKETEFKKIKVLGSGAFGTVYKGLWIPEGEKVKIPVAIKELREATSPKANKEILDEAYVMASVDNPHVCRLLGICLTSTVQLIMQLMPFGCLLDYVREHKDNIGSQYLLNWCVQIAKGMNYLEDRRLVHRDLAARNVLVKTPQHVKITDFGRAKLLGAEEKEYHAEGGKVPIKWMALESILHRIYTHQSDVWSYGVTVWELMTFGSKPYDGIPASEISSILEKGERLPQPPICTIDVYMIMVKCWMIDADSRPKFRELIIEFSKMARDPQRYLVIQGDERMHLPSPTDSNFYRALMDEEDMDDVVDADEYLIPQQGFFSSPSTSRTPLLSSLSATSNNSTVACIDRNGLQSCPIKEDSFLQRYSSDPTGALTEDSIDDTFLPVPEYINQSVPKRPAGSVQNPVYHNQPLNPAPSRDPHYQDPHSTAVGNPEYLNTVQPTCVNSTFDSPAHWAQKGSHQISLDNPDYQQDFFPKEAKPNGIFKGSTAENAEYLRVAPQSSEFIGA
A further experiment concerns the target FGFR. Put plainly: In vitro kinase inhibition studies (Table 13), FGFR. In kind it is biochemical.
The next experiment deals with T1, JAK3 (Homo sapiens, UniProt P52333).
T1 sequence (P52333 1-1124): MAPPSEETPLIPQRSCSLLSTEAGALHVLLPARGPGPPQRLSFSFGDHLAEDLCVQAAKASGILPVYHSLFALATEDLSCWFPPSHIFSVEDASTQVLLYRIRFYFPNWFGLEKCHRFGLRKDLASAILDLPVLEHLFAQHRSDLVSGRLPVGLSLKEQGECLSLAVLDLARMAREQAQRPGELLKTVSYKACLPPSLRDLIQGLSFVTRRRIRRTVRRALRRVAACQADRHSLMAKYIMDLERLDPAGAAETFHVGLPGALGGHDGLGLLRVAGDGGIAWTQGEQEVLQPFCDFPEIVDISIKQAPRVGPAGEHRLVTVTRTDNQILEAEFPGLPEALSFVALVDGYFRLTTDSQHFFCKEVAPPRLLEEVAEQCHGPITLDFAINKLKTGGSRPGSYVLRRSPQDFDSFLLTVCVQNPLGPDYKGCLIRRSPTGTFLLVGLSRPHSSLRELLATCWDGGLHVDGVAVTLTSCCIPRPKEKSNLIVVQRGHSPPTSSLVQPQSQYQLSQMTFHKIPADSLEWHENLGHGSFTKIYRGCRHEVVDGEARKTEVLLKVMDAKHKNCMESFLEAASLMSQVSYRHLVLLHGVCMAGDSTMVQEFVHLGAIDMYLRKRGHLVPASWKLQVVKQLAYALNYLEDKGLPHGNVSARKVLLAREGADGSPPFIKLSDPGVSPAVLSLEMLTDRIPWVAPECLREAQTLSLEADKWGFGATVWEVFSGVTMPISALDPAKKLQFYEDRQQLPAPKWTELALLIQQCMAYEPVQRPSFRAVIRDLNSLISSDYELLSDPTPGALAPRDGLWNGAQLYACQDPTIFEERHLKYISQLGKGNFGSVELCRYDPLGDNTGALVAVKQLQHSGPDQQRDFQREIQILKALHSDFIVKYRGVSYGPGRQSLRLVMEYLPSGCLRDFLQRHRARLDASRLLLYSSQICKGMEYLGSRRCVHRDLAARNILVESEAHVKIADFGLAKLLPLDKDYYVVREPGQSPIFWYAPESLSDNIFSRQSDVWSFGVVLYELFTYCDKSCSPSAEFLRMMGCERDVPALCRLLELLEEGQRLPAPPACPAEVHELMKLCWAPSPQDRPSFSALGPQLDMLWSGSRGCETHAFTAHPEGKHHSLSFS
Put plainly: In vitro kinase inhibition studies (Table 13), JAK3. The experiment is classed as biochemical.

The target of another experiment is FGFR1 (Homo sapiens, UniProt P11362). Put plainly: In vitro kinase inhibition studies (Table 9), FGFR1. The experiment is classed as biochemical.
Sequence of FGFR1 (P11362 22-822, species assumed): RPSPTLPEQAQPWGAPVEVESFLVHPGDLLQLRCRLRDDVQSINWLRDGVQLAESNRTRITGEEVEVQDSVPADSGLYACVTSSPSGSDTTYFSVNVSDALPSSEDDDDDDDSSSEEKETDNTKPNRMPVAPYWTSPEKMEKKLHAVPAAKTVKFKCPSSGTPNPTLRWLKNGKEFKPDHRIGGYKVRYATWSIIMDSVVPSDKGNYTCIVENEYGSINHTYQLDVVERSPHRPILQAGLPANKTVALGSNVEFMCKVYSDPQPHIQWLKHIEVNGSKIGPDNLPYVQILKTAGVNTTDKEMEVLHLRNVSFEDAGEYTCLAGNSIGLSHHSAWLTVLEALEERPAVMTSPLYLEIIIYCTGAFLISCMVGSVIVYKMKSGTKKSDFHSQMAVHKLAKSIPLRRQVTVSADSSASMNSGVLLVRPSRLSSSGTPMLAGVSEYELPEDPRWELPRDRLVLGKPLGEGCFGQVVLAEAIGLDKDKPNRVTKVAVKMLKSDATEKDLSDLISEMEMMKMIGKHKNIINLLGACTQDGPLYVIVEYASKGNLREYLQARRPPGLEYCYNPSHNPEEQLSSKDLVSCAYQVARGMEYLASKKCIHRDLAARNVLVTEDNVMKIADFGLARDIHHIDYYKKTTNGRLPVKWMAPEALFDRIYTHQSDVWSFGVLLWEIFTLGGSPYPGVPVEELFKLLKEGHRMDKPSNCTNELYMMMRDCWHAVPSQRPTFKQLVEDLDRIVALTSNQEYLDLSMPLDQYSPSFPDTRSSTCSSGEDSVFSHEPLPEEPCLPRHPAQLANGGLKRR
Another experiment has as its system RL cells. Put plainly: IC50 of Ibrutinib analogs against human cancer cells, RL cells (Table 14). The experiment is classed as cell-based. The following applies: for pIC50: Homo sapiens, RL, read-out: RL (IC50).
The next experiment addresses MAP2K7 (Homo sapiens, UniProt O14733). Put plainly: In vitro kinase inhibition studies (Table 13), MAP2K7. In kind it is biochemical.
In a further experiment the target is BTK (Homo sapiens, UniProt Q06187). Put plainly: In vitro BTK inhibition, biochemical IC50 (no preincubation). The following applies: Table 7. The procedure: IC50 Values (nM) for the Inhibition of BTK Activity
Sequence of BTK (Q06187 whole entry, species assumed): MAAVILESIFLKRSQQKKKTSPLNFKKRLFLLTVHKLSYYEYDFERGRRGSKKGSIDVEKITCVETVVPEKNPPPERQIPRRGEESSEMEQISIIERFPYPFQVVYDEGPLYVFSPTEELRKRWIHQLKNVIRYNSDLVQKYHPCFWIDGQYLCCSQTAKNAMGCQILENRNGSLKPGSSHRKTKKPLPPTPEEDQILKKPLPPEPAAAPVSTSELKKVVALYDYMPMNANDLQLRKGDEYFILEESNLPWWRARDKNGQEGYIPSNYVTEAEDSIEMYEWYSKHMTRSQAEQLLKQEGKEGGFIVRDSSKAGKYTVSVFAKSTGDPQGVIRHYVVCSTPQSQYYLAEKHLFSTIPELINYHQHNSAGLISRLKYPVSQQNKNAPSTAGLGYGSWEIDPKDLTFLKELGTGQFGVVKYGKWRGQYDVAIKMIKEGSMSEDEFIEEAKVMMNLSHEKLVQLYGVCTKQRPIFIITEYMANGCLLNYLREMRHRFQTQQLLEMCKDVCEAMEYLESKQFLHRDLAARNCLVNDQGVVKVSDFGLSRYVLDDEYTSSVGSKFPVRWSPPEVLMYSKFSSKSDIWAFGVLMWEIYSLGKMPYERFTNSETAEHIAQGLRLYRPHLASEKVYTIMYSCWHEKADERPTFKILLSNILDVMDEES
In vitro BTK and JAK3 inhibition studies are shown in Table 7 and Table 8 (no preincubation).

pIC50: −log10 of the molar value. Like-named read-outs stand apart in the source and are kept apart here.

Experimental findings from patent publication US20230055961A1, “PENTAFLUOROBENZENESULFONAMIDE DERIVATIVES AND USES THEREOF” (Dunad Therapeutics Ltd., priority 2019, published 2023) are described below.

Sequence of MAP2K7 (O14733 whole entry, species assumed): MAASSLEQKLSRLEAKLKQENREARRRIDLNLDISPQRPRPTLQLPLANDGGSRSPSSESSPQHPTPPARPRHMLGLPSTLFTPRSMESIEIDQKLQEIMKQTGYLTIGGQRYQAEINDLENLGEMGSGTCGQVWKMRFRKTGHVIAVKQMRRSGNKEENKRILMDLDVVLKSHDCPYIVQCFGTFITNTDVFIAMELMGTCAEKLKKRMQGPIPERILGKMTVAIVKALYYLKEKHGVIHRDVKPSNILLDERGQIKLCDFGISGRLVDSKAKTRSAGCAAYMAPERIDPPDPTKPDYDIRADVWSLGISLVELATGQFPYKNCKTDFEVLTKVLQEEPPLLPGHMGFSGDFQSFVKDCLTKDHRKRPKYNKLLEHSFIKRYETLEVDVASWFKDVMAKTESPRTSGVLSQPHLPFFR
Sequence of FGFR2 (P21802 22-821, species assumed): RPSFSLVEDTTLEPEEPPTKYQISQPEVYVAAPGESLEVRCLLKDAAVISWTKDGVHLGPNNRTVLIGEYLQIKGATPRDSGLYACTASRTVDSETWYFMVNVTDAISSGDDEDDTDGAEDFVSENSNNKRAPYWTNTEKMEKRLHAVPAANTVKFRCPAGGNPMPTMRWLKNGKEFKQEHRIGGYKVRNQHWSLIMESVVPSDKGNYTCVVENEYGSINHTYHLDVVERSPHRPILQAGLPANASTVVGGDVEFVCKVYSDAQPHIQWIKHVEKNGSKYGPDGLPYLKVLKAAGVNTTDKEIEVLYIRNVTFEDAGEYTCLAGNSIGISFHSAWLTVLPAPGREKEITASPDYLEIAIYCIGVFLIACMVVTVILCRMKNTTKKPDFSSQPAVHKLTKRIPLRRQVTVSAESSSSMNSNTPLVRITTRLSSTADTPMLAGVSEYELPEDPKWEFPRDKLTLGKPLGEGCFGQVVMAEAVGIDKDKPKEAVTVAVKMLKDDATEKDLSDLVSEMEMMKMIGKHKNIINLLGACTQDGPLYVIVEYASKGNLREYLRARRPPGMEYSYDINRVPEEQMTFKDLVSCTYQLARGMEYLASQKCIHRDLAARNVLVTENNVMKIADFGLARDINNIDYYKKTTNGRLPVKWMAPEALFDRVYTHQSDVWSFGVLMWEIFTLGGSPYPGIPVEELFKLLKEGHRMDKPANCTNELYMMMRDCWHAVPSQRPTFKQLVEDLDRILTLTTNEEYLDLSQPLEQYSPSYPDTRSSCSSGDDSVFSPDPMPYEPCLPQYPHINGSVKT
Sequence of EGFR L850R (P00533 whole entry L858R, form open): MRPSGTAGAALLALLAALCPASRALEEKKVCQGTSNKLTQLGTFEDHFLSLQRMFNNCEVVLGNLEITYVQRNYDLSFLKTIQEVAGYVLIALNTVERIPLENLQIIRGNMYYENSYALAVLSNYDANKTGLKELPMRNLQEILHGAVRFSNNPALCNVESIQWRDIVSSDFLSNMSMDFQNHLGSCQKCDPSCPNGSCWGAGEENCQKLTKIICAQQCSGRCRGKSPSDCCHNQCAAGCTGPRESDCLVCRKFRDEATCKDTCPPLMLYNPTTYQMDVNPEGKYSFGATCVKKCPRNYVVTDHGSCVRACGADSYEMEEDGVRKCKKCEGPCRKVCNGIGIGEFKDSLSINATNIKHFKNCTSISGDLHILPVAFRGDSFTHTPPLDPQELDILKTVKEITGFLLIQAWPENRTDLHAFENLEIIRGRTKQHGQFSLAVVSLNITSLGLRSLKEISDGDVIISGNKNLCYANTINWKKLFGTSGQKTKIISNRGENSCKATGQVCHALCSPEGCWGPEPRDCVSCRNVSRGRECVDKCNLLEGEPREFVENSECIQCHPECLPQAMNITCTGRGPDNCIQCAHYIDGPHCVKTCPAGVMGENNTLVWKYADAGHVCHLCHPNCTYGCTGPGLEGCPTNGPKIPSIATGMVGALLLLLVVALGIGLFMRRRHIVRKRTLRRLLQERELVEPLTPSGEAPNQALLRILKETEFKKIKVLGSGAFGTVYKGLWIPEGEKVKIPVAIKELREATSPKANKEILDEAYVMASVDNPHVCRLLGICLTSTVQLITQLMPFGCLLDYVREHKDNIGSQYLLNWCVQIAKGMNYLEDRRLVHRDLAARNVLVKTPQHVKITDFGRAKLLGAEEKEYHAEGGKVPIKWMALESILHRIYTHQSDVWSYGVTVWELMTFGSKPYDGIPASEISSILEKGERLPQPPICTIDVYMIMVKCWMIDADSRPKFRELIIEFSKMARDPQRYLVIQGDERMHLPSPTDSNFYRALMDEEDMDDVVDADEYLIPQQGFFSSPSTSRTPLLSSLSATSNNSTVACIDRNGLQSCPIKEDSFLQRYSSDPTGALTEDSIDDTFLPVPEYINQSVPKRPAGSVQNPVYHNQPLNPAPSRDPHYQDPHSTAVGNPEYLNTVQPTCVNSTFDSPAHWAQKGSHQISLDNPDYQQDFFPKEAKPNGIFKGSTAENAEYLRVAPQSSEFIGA
Description for RL cells: 1×10^4 cells (NHF cells)/well are plated in 96-well assay plates in culture medium. […] After 24 hrs, test compounds and vehicle controls are added to appropriate wells so the final volume is 100p in each well. The cells are cultured for the desired test exposure period (72 hrs) at 37° C. and 5% CO2. The assay plates are removed from 37° C. incubator and 20 μl/well of CellTiter-Blue® Reagent is added. The plates are incubated using standard cell culture conditions for 1-4 hours and the plates are shaken for 10 seconds and record fluorescence at 560/590 nm. […] Therapeutic index=(IC50 human fibroblasts/IC50 […] )

Regarding `Nc1ncnc2c1c(-c1ccc(Oc3ccccc3)cc1)nn2[C@@H]1CCCN(S(=O)(=O)c2c(F)c(F)c(F)c(F)c2F)C1` [Compound 5-1, (R)-1-(1-((perfluorophenyl)sulfonyl)piperidin-3-yl)-3-(4-phenoxyphenyl)-1H-pyrazolo[3,4-d]pyrimidin-4-amine], the 50% inhibitory concentration (IC50) (usually the midpoint of a concentration-inhibition curve) against FGFR2 lay in the range of 100 to 1000 nM; against EGFR L850R, 100 to 1000 nM; at EGFR L850R, T790M it was 100 to 1000 nM; against FGFR it was 100 to 1000 nM; against JAK3 it was 100 to 1000 nM; at MAP2K7, 10 to 100 nM. Besides, the pIC50 (commonly −log10 of the IC50, conventionally taken in molar units) against FGFR1 is 6.52 to 8.00; with RL cells (TABLE 9) it was 5.79; with RL cells (Table 14, RL human non-Hodgkin's lymphoma B cell line), 5.56; against BTK it was 7.00 to 8.00. Further, the “cell-based efficacy compared with Ibrutinib” value with RL cells (RL cells) is recorded as “better cell-based efficacy”.
